Assay results as given in patent US9751858B2, “3-heteroaroylamino-propionic acid derivatives and their use as pharmaceuticals” (SANOFI, priority 2011, dated 2017).

Biological target: T1, Recombinant human cathepsin A (Homo sapiens, UniProt P10619)
T1 construct: Recombinant human cathepsin A (residues 29-480, with a C-terminal 10-His tag); 10-His (C); purchased R&D Systems 1049-SE
T1 sequence (P10619 29-326 limits assumed): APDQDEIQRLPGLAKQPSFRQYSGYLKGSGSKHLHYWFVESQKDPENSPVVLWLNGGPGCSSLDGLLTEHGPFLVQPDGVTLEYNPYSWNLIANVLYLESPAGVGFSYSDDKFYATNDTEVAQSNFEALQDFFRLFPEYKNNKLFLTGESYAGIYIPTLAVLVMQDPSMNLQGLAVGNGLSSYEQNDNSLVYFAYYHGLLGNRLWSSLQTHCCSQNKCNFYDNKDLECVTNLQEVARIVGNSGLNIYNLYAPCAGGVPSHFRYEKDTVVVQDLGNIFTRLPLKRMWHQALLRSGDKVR
T1 sequence (P10619 327-480 limits assumed): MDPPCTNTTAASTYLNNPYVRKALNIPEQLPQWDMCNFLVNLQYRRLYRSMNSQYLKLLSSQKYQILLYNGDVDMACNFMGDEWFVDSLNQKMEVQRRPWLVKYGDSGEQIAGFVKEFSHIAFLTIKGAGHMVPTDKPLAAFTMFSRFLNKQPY
Assay: Cathepsin A inhibitory activity
Assay type: biochemical
Conditions: activated recombinant human cathepsin A 833 ng/ml, Bodipy FL-labeled bradykinin 2 μM, pH 5.5, 15 min room temperature
Protocol: a) Cathepsin a Inhibitory Activity
Briefly, cathepsin A was incubated at 10 μg/ml with cathepsin L at 1 μg/ml in activation buffer (25 mM 2-(morpholin-4-yl)-ethanesulfonic acid (MES), pH 6.0, containing 5 mM dithiothreitol (DTT)) for 15 min at 37° C.
The activated cathepsin A was diluted in assay buffer (25 mM MES, pH 5.5, containing 5 mM DTT) and mixed with the test compound (dissolved in assay buffer containing (v/v) 3% DMSO) or, in the control experiments, with the vehicle in a multiple assay plate. After incubation for 15 min at room temperature, as substrate then bradykinin carrying an N-terminal ®Bodipy FL (4,4-difluoro-5,7-dimethyl-4-bora-3a,4a-diaza-s-indacene-3-propionyl) label (JPT Peptide Technologies GmbH; dissolved in assay buffer) was added to the mixture. […] After incubation for 15 min at room temperature the reaction was stopped by the addition of stop buffer (130 mM 2-(4-(2-hydroxy-ethyl)-piperazin-1-yl)-ethanesulfonic acid, pH 7.4, containing (v/v) 0.013%® Triton X-100, 0.13% Coating Reagent 3 (Caliper Life Sciences), 6.5% DMSO and 20 μM ebelactone B (Sigma, # E0886)).
Uncleaved substrate and product were then separated by a microfluidic capillary electrophoresis on a LabChip® 3000 Drug Discovery System (12-Sipper-Chip; Caliper Life Sciences) and quantified by determination of the respective peak areas. Substrate turnover was calculated by dividing product peak area by the sum of substrate and product peak areas, and the enzyme activity and the inhibitory effect of the test compound thus quantified.

| SMILES | IC50 [nM] |
| --- | --- |
| COc1cccc([C@H](CC(=O)O)NC(=O)c2nc(-c3ccccc3)oc2C(C)C)c1 [Example 65, (S)-3-[(5-Isopropyl-2-phenyl-oxazole-4-carbonyl)-amino]-3-(3-methoxy-phenyl)-propionic acid] | > 10000 |
| COc1cccc([C@H](CC(=O)O)NC(=O)c2nc(-c3ccccc3)oc2C)c1OC [Example 66, (S)-3-(2,3-Dimethoxy-phenyl)-3-[(5-methyl-2-phenyl-oxazole-4-carbonyl)-amino]-propionic acid] | 12500 |
| O=C(O)CC(NC(=O)c1nc(-c2ccccc2)oc1C(F)(F)F)C1CCCCC1 (stereo not drawn) [Example 68, 3-Cyclohexyl-3-[(2-phenyl-5-trifluoromethyl-oxazole-4-carbonyl)-amino]-propionic acid] | 14800 |
| Cc1ccccc1[C@H](CC(=O)O)NC(=O)c1nn(Cc2ccccc2)c2ccccc12 [Example 72, (S)-3-[(1-Benzyl-1H-indazole-3-carbonyl)-amino]-3-o-tolyl-propionic acid] | 171 |
| COc1ccc([C@H](CC(=O)O)NC(=O)CCc2nc(-c3ccccc3F)no2)cc1 [Example 73, (S)-3-{3-[3-(2-Fluoro-phenyl)-[1,2,4]oxadiazol-5-yl]-propionylamino}-3-(4-methoxy-phenyl)-propionic acid] | > 10000 |
| O=C(O)C[C@H](NC(=O)CCc1nc(-c2ccccc2F)no1)c1cccc(Cl)c1 [Example 74, (S)-3-(3-Chloro-phenyl)-3-{3-[3-(2-fluoro-phenyl)-[1,2,4]oxadiazol-5-yl]-propionylamino}-propionic acid] | 610 |
| Cc1oc(-c2ccccc2)nc1C(=O)N[C@@H](CC(=O)O)c1ccc(Cl)cc1Cl [Example 75, (S)-3-(2,4-Dichloro-phenyl)-3-[(5-methyl-2-phenyl-oxazole-4-carbonyl)-amino]-propionic acid] | 1750 |
| Cc1oc(-c2ccccc2)nc1C(=O)N[C@@H](CC(=O)O)c1cccc(Cl)c1Cl [Example 76, (S)-3-(2,3-Dichloro-phenyl)-3-[(5-methyl-2-phenyl-oxazole-4-carbonyl)-amino]-propionic acid] | 590 |
| O=C(O)C[C@H](NC(=O)c1nc(-c2ccccc2)oc1C(F)(F)F)c1cccc(F)c1 [Example 79, (S)-3-(3-Fluoro-phenyl)-3-[(2-phenyl-5-trifluoromethyl-oxazole-4-carbonyl)-amino]-propionic acid] | > 10000 |
| O=C(O)C[C@H](NC(=O)c1noc(-c2ccccc2F)n1)c1ccccc1C(F)(F)F [Example 80, (S)-3-{[5-(2-Fluoro-phenyl)-[1,2,4]oxadiazole-3-carbonyl]-amino}-3-(2-trifluoromethyl-phenyl)-propionic acid] | 11900 |
| O=C(O)C[C@H](NC(=O)c1noc(-c2ccccc2F)n1)c1cccc(C(F)(F)F)c1 [Example 81, (S)-3-{[5-(2-Fluoro-phenyl)-[1,2,4]oxadiazole-3-carbonyl]-amino}-3-(3-trifluoromethyl-phenyl)-propionic acid] | > 10000 |
| Cc1ccc([C@H](CC(=O)O)NC(=O)c2nc(C3CC3)n(-c3ccccc3Cl)n2)cc1 [Example 83, (S)-3-{[1-(2-Chloro-phenyl)-5-cyclopropyl-1H-[1,2,4]triazole-3-carbonyl]-amino}-3-p-tolyl-propionic acid] | > 10000 |
| Cc1oc(-c2ccccc2F)nc1C(=O)N[C@@H](CC(=O)O)c1cccc(C(F)(F)F)c1 [Example 92, (S)-3-{[2-(2-Fluoro-phenyl)-5-methyl-oxazole-4-carbonyl]-amino}-3-(3-trifluoromethyl-phenyl)-propionic acid] | 1140 |
| Cc1oc(-c2ccccc2F)nc1C(=O)N[C@@H](CC(=O)O)c1ccc(C(F)(F)F)cc1 [Example 93, (S)-3-{[2-(2-Fluoro-phenyl)-5-methyl-oxazole-4-carbonyl]-amino}-3-(4-trifluoromethyl-phenyl)-propionic acid] | 944 |
| Cc1oc(-c2ccccc2F)nc1C(=O)N[C@@H](CC(=O)O)c1cccc(Cl)c1Cl [Example 94, (S)-3-(2,3-Dichloro-phenyl)-3-{[2-(2-fluoro-phenyl)-5-methyl-oxazole-4-carbonyl]-amino}-propionic acid] | 514 |

More lines, now with the values ahead:

| IC50 [nM] | SMILES |
| --- | --- |
| 1400 | CC(C)c1oc(-c2ccccc2)nc1C(=O)N[C@@H](CC(=O)O)c1ccccc1Cl [Example 67, (S)-3-(2-Chloro-phenyl)-3-[(5-isopropyl-2-phenyl-oxazole-4-carbonyl)-amino]-propionic acid] |
| 387 | O=C(O)C[C@H](NC(=O)c1nc(-c2ccccc2)n(-c2ccccc2)n1)c1ccccc1 [Example 69, (S)-3-[(1,5-Diphenyl-1H-[1,2,4]triazole-3-carbonyl)-amino]-3-phenyl-propionic acid] |
| 166 | CCc1nc(C(=O)N[C@@H](CC(=O)O)c2ccccc2C)nn1-c1ccccc1Cl [Example 70, (S)-3-{[1-(2-Chloro-phenyl)-5-ethyl-1H-[1,2,4]triazole-3-carbonyl]-amino}-3-o-tolyl-propionic acid] |
| 492 | CCc1nc(C(=O)N[C@@H](CC(=O)O)c2ccc(C)cc2)nn1-c1ccccc1Cl [Example 71, (S)-3-{[1-(2-Chloro-phenyl)-5-ethyl-1H-[1,2,4]triazole-3-carbonyl]-amino}-3-p-tolyl-propionic acid] |
| 1910 | Cc1ccccc1[C@H](CC(=O)O)NC(=O)c1nc(-c2ccccc2)oc1C(F)(F)F [Example 77, (S)-3-[(2-Phenyl-5-trifluoromethyl-oxazole-4-carbonyl)-amino]-3-o-tolyl-propionic acid] |
| 8470 | Cc1oc(-c2ccccc2)nc1C(=O)N[C@@H](CC(=O)O)c1ccccc1C(F)(F)F [Example 78, (S)-3-[(5-Methyl-2-phenyl-oxazole-4-carbonyl)-amino]-3-(2-trifluoromethyl-phenyl)-propionic acid] |
| > 10000 | Cc1ccccc1[C@H](CC(=O)O)NC(=O)c1nc(C2CC2)n(-c2ccccc2Cl)n1 [Example 82, (S)-3-{[1-(2-Chloro-phenyl)-5-cyclopropyl-1H-[1,2,4]triazole-3-carbonyl]-amino}-3-o-tolyl-propionic acid] |
| 53.8 | Cc1ccccc1[C@H](CC(=O)O)NC(=O)c1nc(-c2ccccc2)n(-c2ccccc2)n1 [Example 84, (S)-3-[(1,5-Diphenyl-1H-[1,2,4]triazole-3-carbonyl)-amino]-3-o-tolyl-propionic acid] |
| 280 | Cc1ccc([C@H](CC(=O)O)NC(=O)c2nc(C(C)C)n(-c3ccccc3Cl)n2)cc1 [Example 85, (S)-3-{[1-(2-Chloro-phenyl)-5-isopropyl-1H-[1,2,4]triazole-3-carbonyl]-amino}-3-p-tolyl-propionic acid] |
| 2230 | O=C(O)CC(Cc1ccccc1)NC(=O)c1nc(-c2ccccc2)n(-c2ccccc2)n1 (stereo not drawn) [Example 86, 3-[(1,5-Diphenyl-1H-[1,2,4]triazole-3-carbonyl)-amino]-4-phenyl-butyric acid] |
| 95 | Cc1ccccc1[C@H](CC(=O)O)NC(=O)c1nc(C(C)C)n(-c2ccccc2Cl)n1 [Example 87, (S)-3-{[1-(2-Chloro-phenyl)-5-isopropyl-1H-[1,2,4]triazole-3-carbonyl]-amino}-3-o-tolyl-propionic acid] |
| 335 | CCCc1nc(C(=O)N[C@@H](CC(=O)O)c2ccc(C)cc2)nn1-c1ccccc1Cl [Example 88, (S)-3-{[1-(2-Chloro-phenyl)-5-propyl-1H-[1,2,4]triazole-3-carbonyl]-amino}-3-p-tolyl-propionic acid] |
| 127 | CCCc1nc(C(=O)N[C@@H](CC(=O)O)c2ccccc2C)nn1-c1ccccc1Cl [Example 89, (S)-3-{[1-(2-Chloro-phenyl)-5-propyl-1H-[1,2,4]triazole-3-carbonyl]-amino}-3-o-tolyl-propionic acid] |
| 353 | O=C(O)C[C@H](NC(=O)c1nc(-c2ccccc2)n(-c2ccccc2)n1)c1ccccc1F [Example 90, (S)-3-[(1,5-Diphenyl-1H-[1,2,4]triazole-3-carbonyl)-amino]-3-(2-fluoro-phenyl)-propionic acid] |
| 517 | O=C(O)C[C@H](NC(=O)c1nc(-c2ccccc2)n(-c2ccccc2)n1)c1ccc(F)cc1 [Example 91, (S)-3-[(1,5-Diphenyl-1H-[1,2,4]triazole-3-carbonyl)-amino]-3-(4-fluoro-phenyl)-propionic acid] |
